Test results: patent publication US7312245B2 (priority 2001, dated 2007)
Where two headings read alike, the source gives them in different places.

Tests used:
Assay type in all cases: in vivo
[1] = test system: Pyricularia oryzae; conditions: spray application of wettable powder diluted to 500 ppm; rice Koshihikari 2-leaf stage; spray-inoculated with Pyricularia oryzae spores; examined after 7 days
[2] = test system: Pyricularia oryzae; conditions: granules applied to water surface at 3 kg/10 ares; rice Koshihikari; inoculated 30 days after application; lesions checked after 1 week
[3] = test system: Pyricularia oryzae; conditions: nursery box treated with granules 50 g per box; rice Koshihikari; inoculated 30 days after transplantation; lesions counted after 1 week

Compound: C=CCOC(=O)NC(CNC(=O)c1ccc(Cl)cc1)C(C)C (stereo not drawn) [compound 739]
- Grade of Effect (preventive value, rice blast controlling effect) [1]: A (100%)
- Grade of Effect (preventive value, rice blast controlling effect) [2]: A (From 80% to 100%)
- Grade of Effect (preventive value, rice blast controlling effect) [3]: A (From 80% to 100%)

Compound: CC(C)C(CNC(=O)c1ccc(Cl)cc1)NC(=O)OCC1CC1 (stereo not drawn) [compound 1183]
- Grade of Effect (preventive value, rice blast controlling effect) [1]: A (100%)
- Grade of Effect (preventive value, rice blast controlling effect) [2]: A (From 80% to 100%)
- Grade of Effect (preventive value, rice blast controlling effect) [3]: A (From 80% to 100%)

Compound: C=C(C)COC(=O)NC(CNC(=O)c1ccc(C)cc1)C(C)C (stereo not drawn) [compound 1216]
- Grade of Effect (preventive value, rice blast controlling effect) [1]: A (100%)
- Grade of Effect (preventive value, rice blast controlling effect) [2]: A (From 80% to 100%)
- Grade of Effect (preventive value, rice blast controlling effect) [3]: A (From 80% to 100%)

Compound: CC(C)C(CNC(=O)c1ccc(Cl)cc1)NC(=O)OCc1ccc(Cl)cc1 (stereo not drawn) [compound 1063]
- Grade of Effect (preventive value, rice blast controlling effect) [1]: A (100%)
- Grade of Effect (preventive value, rice blast controlling effect) [2]: A (From 80% to 100%)
- Grade of Effect (preventive value, rice blast controlling effect) [3]: A (From 80% to 100%)

Compound: Cc1ccc(C(=O)NCC(C)(NC(=O)OC(C)C)C(C)C)cc1 (stereo not drawn) [compound 245]
- Grade of Effect (preventive value, rice blast controlling effect) [1]: A (100%)
- Grade of Effect (preventive value, rice blast controlling effect) [2]: A (From 80% to 100%)
- Grade of Effect (preventive value, rice blast controlling effect) [3]: A (From 80% to 100%)

Compound: Cc1ccc(C(=O)NCC(NC(=O)OCC(C)C)C(C)C)cc1 (stereo not drawn) [compound 387]
- Grade of Effect (preventive value, rice blast controlling effect) [1]: A (100%)
- Grade of Effect (preventive value, rice blast controlling effect) [2]: A (From 80% to 100%)
- Grade of Effect (preventive value, rice blast controlling effect) [3]: A (From 80% to 100%)

Compound: Cc1ccc(C(=O)NCC(NC(=O)OC(C)C)c2ccccc2)cc1 (stereo not drawn) [compound 279]
- Grade of Effect (preventive value, rice blast controlling effect) [1]: A (100%)
- Grade of Effect (preventive value, rice blast controlling effect) [2]: A (From 80% to 100%)
- Grade of Effect (preventive value, rice blast controlling effect) [3]: A (From 80% to 100%)

Compound: Cc1ccc(C(=O)NCC(NC(=O)OCC(C)(C)C)C(C)C)cc1 (stereo not drawn) [compound 1201]
- Grade of Effect (preventive value, rice blast controlling effect) [1]: A (100%)
- Grade of Effect (preventive value, rice blast controlling effect) [2]: A (From 80% to 100%)
- Grade of Effect (preventive value, rice blast controlling effect) [3]: A (From 80% to 100%)

Compound: Cc1ccc(C(=O)NCC(C)(NC(=O)OC(C)c2ccccc2)C(C)C)cc1 (stereo not drawn) [compound 1081]
- Grade of Effect (preventive value, rice blast controlling effect) [1]: A (100%)
- Grade of Effect (preventive value, rice blast controlling effect) [2]: A (From 80% to 100%)
- Grade of Effect (preventive value, rice blast controlling effect) [3]: A (From 80% to 100%)

Compound: Cc1ccc(C(=O)NCC(NC(=O)OCC2CC2)C(C)C)cc1 (stereo not drawn) [compound 1186]
- Grade of Effect (preventive value, rice blast controlling effect) [1]: A (100%)
- Grade of Effect (preventive value, rice blast controlling effect) [2]: A (From 80% to 100%)
- Grade of Effect (preventive value, rice blast controlling effect) [3]: A (From 80% to 100%)

Compound: Cc1ccc(C(=O)NCC(NC(=O)OCc2ccccc2)C(C)C)cc1 (stereo not drawn) [compound 600]
- Grade of Effect (preventive value, rice blast controlling effect) [1]: A (100%)
- Grade of Effect (preventive value, rice blast controlling effect) [2]: A (From 80% to 100%)
- Grade of Effect (preventive value, rice blast controlling effect) [3]: A (From 80% to 100%)

Compound: CC(C)C(CNC(=O)c1ccc(Cl)cc1)NC(=O)OCc1ccoc1 (stereo not drawn) [compound 1138]
- Grade of Effect (preventive value, rice blast controlling effect) [1]: A (100%)
- Grade of Effect (preventive value, rice blast controlling effect) [2]: A (From 80% to 100%)
- Grade of Effect (preventive value, rice blast controlling effect) [3]: A (From 80% to 100%)

Compound: CCc1ccc(C(=O)NCC(NC(=O)OC(C)C)C(C)C)cc1 (stereo not drawn) [compound 241]
- Grade of Effect (preventive value, rice blast controlling effect) [1]: A (100%)
- Grade of Effect (preventive value, rice blast controlling effect) [2]: A (From 80% to 100%)
- Grade of Effect (preventive value, rice blast controlling effect) [3]: A (From 80% to 100%)

Compound: CC(C)OC(=O)NC(CNC(=O)c1ccc(Cl)cc1)Cc1ccccc1 (stereo not drawn) [compound 290, N-(4-chlorobenzoyl)-N′-(i-propoxycarbonyl)-3-phenyl-1,2-propanediamine]
- Grade of Effect (preventive value, rice blast controlling effect) [1]: A (100%)
- Grade of Effect (preventive value, rice blast controlling effect) [2]: A (From 80% to 100%)
- Grade of Effect (preventive value, rice blast controlling effect) [3]: A (From 80% to 100%)

Compound: CC(C)C(CNC(=O)c1ccc(Cl)cc1)NC(=O)OC(C)C(C)C (stereo not drawn) [compound 1228]
- Grade of Effect (preventive value, rice blast controlling effect) [1]: A (100%)
- Grade of Effect (preventive value, rice blast controlling effect) [2]: A (From 80% to 100%)
- Grade of Effect (preventive value, rice blast controlling effect) [3]: A (From 80% to 100%)

Compound: Cc1ccc(C(=O)NCC(NC(=O)OCc2ccc(Cl)cc2)C(C)C)cc1 (stereo not drawn) [compound 1066]
- Grade of Effect (preventive value, rice blast controlling effect) [1]: A (100%)
- Grade of Effect (preventive value, rice blast controlling effect) [2]: A (From 80% to 100%)
- Grade of Effect (preventive value, rice blast controlling effect) [3]: A (From 80% to 100%)

Compound: CC(C)C(CNC(=O)c1ccccc1)NC(=O)OCc1ccccc1 (stereo not drawn) [compound 596]
- Grade of Effect (preventive value, rice blast controlling effect) [1]: A (100%)
- Grade of Effect (preventive value, rice blast controlling effect) [2]: A (From 80% to 100%)
- Grade of Effect (preventive value, rice blast controlling effect) [3]: A (From 80% to 100%)

Compound: CC(C)OC(=O)NC(C(C)C)C(C)NC(=O)c1ccc(Cl)cc1 (stereo not drawn) [compound 247]
- Grade of Effect (preventive value, rice blast controlling effect) [1]: A (100%)
- Grade of Effect (preventive value, rice blast controlling effect) [2]: A (From 80% to 100%)
- Grade of Effect (preventive value, rice blast controlling effect) [3]: A (From 80% to 100%)

Compound: CSCCOC(=O)NC(CNC(=O)c1ccc(C)cc1)C(C)C (stereo not drawn) [compound 1261]
- Grade of Effect (preventive value, rice blast controlling effect) [1]: A (100%)
- Grade of Effect (preventive value, rice blast controlling effect) [2]: A (From 80% to 100%)
- Grade of Effect (preventive value, rice blast controlling effect) [3]: A (From 80% to 100%)

Compound: Cc1ccc(COC(=O)NC(CNC(=O)c2ccc(Cl)cc2)C(C)C)cc1 (stereo not drawn) [compound 1049]
- Grade of Effect (preventive value, rice blast controlling effect) [1]: A (100%)
- Grade of Effect (preventive value, rice blast controlling effect) [2]: A (From 80% to 100%)
- Grade of Effect (preventive value, rice blast controlling effect) [3]: A (From 80% to 100%)

Compound: C=C(C)COC(=O)NC(CNC(=O)c1ccc(Cl)cc1)C(C)C (stereo not drawn) [compound 1213]
- Grade of Effect (preventive value, rice blast controlling effect) [1]: A (100%)
- Grade of Effect (preventive value, rice blast controlling effect) [2]: A (From 80% to 100%)
- Grade of Effect (preventive value, rice blast controlling effect) [3]: A (From 80% to 100%)

Compound: Cc1ccc(C(=O)NCC(NC(=O)OC(C)C(C)C)C(C)C)cc1 (stereo not drawn) [compound 1231]
- Grade of Effect (preventive value, rice blast controlling effect) [1]: A (100%)
- Grade of Effect (preventive value, rice blast controlling effect) [2]: A (From 80% to 100%)
- Grade of Effect (preventive value, rice blast controlling effect) [3]: A (From 80% to 100%)

Compound: CCC(CNC(=O)Oc1ccccc1)NC(=O)OC (stereo not drawn) [Formula (8), reference compound]
- Grade of Effect (preventive value, rice blast controlling effect) [1]: D (less than 50%)
- Grade of Effect (preventive value, rice blast controlling effect) [2]: C (less than 50%)
- Grade of Effect (preventive value, rice blast controlling effect) [3]: C (less than 50%)

Compound: CSCCOC(=O)NC(CNC(=O)c1ccc(Cl)cc1)C(C)C (stereo not drawn) [compound 1258]
- Grade of Effect (preventive value, rice blast controlling effect) [1]: A (100%)
- Grade of Effect (preventive value, rice blast controlling effect) [2]: A (From 80% to 100%)
- Grade of Effect (preventive value, rice blast controlling effect) [3]: A (From 80% to 100%)

Compound: CC(C)C(CNC(=O)c1ccc(Cl)cc1)NC(=O)OCC(C)(C)C (stereo not drawn) [compound 1198]
- Grade of Effect (preventive value, rice blast controlling effect) [1]: A (100%)
- Grade of Effect (preventive value, rice blast controlling effect) [2]: A (From 80% to 100%)
- Grade of Effect (preventive value, rice blast controlling effect) [3]: A (From 80% to 100%)

Compound: Cc1ccc(C(=O)NCC(NC(=O)OCC2CCCO2)C(C)C)cc1 (stereo not drawn) [compound 1156]
- Grade of Effect (preventive value, rice blast controlling effect) [1]: A (100%)
- Grade of Effect (preventive value, rice blast controlling effect) [2]: A (From 80% to 100%)
- Grade of Effect (preventive value, rice blast controlling effect) [3]: A (From 80% to 100%)

Compound: CC(C)OC(=O)NC(CNC(=O)c1ccc2ccccc2c1)C(C)C (stereo not drawn) [compound 242]
- Grade of Effect (preventive value, rice blast controlling effect) [1]: A (100%)
- Grade of Effect (preventive value, rice blast controlling effect) [2]: A (From 80% to 100%)
- Grade of Effect (preventive value, rice blast controlling effect) [3]: A (From 80% to 100%)

Compound: Cc1ccc(C(=O)NCC(Cc2ccccc2)NC(=O)OC(C)C)cc1 (stereo not drawn) [compound 289]
- Grade of Effect (preventive value, rice blast controlling effect) [1]: A (100%)
- Grade of Effect (preventive value, rice blast controlling effect) [2]: A (From 80% to 100%)
- Grade of Effect (preventive value, rice blast controlling effect) [3]: A (From 80% to 100%)

Compound: Cc1ccc(C(=O)NC(C)C(NC(=O)OC(C)(C)C)C(C)C)cc1 (stereo not drawn) [compound 470]
- Grade of Effect (preventive value, rice blast controlling effect) [1]: A (100%)
- Grade of Effect (preventive value, rice blast controlling effect) [2]: A (From 80% to 100%)
- Grade of Effect (preventive value, rice blast controlling effect) [3]: A (From 80% to 100%)

Compound: Cc1ccc(C(=O)NCC(C)NC(=O)OC(C)C)cc1 (stereo not drawn) [compound 215]
- Grade of Effect (preventive value, rice blast controlling effect) [1]: A (100%)
- Grade of Effect (preventive value, rice blast controlling effect) [2]: A (From 80% to 100%)
- Grade of Effect (preventive value, rice blast controlling effect) [3]: A (From 80% to 100%)

Compound: CC(C)C(CNC(=O)c1ccc(Cl)cc1)NC(=O)OCC1CCCO1 (stereo not drawn) [compound 1153]
- Grade of Effect (preventive value, rice blast controlling effect) [1]: A (100%)
- Grade of Effect (preventive value, rice blast controlling effect) [2]: A (From 80% to 100%)
- Grade of Effect (preventive value, rice blast controlling effect) [3]: A (From 80% to 100%)

Compound: Cc1ccc(C(=O)NCC(C)(NC(=O)OC(C)(C)C)C(C)C)cc1 (stereo not drawn) [compound 469]
- Grade of Effect (preventive value, rice blast controlling effect) [1]: B (80% or more and less than 100%)
- Grade of Effect (preventive value, rice blast controlling effect) [2]: B (50% or more and less than 80%)
- Grade of Effect (preventive value, rice blast controlling effect) [3]: B (50% or more and less than 80%)

Compound: Cc1ccc(C(=O)NCC(NC(=O)OC(C)C)c2ccc(Cl)cc2)cc1 (stereo not drawn) [compound 284]
- Grade of Effect (preventive value, rice blast controlling effect) [1]: A (100%)
- Grade of Effect (preventive value, rice blast controlling effect) [2]: A (From 80% to 100%)
- Grade of Effect (preventive value, rice blast controlling effect) [3]: A (From 80% to 100%)

Compound: Cc1ccc(C(=O)NCC(NC(=O)OC(C)C)C(C)C)cc1 (stereo not drawn) [compound 240]
- Grade of Effect (preventive value, rice blast controlling effect) [1]: A (100%)
- Grade of Effect (preventive value, rice blast controlling effect) [2]: A (From 80% to 100%)
- Grade of Effect (preventive value, rice blast controlling effect) [3]: A (From 80% to 100%)

Compound: COC(=O)NC(CNC(=O)c1ccccc1)C(C)C (stereo not drawn) [compound 26]
- Grade of Effect (preventive value, rice blast controlling effect) [1]: A (100%)
- Grade of Effect (preventive value, rice blast controlling effect) [2]: A (From 80% to 100%)
- Grade of Effect (preventive value, rice blast controlling effect) [3]: A (From 80% to 100%)
